From patent US20240246957A1, “Diazepane Derivatives, Processes for their Preparation, and Uses thereof for the Amelioration, Prevention and/or Treatment of Mental and Neurological Diseases” (2N Pharma ApS, priority 2021, published 2024)

Assays:
[1] = system: HEK293 cells; assay: Fatty acid uptake assay using HEK293 cells; type: cell-based; conditions: Homo sapiens, CPT1 inhibitor, racemic mixture, FIG. 1
Method: HEK293 cells were thawed and centrifuged at 400 g in 1 min, whereafter the supernatant was discarded. The cells were resuspended in DMEM+GlutaMax medium (cat #10566016, Invitrogen) containing 10% fetal calf serum (cat #10270-106, Invitrogen) and 1% penicillin/streptomycin (cat #15140-122, Life Technologies). HEK293 cells were seeded into a T25 flask and incubated at 37 degrees Celsius until 80% confluency. When the HEK293 cells reached confluency, cells were counted and seeded in a 96-well plate and with a volume of 10.000 cells/well in medium (as described above) and incubated overnight. Three wells were without cells serving as controls.
The cells were divided into two groups: 1) Example 1, and 2) Untreated. The fatty acid uptake assay (cat #408-100, BioVision) was carried out according to the protocol from BioVision. The only exception to the protocol was that the measurements in the PerkinElmer Multimode Plate Reader Enspire instrument was running overnight.
Statistics was performed in GraphPad Prism version 8.0. Repeated measure two-way ANOVA were conducted as the groups were tested multiple times followed by a multiple comparison Bonferroni post hoc test.

[2] = system: SOD1 G93A mice; assay: Efficacy study (survival) in SOD1 G93A mouse model of ALS; type: in vivo; conditions: compared to vehicle, Edaravone and Riluzole, survival = neurological score below 4, FIG. 2
Method: All experiments were approved by the Danish Animal Experiment Inspectorate (2017-15-0202-00088) and followed the National and European guidelines for conducting animal experiments. Animal experiments was conducted according to the ARRIVE guidelines. Mice were housed in IVC cages in a high barrier facility at Aalborg University, Denmark with a room temperature of 21° C. The mice were kept at a 12-hour light/dark cycle and had ad libitum access to food and water.
B6.Cg-Tg(SOD1*G93A)1Gur/J mice (Stock #004435) (SOD1) were purchased from Jackson Laboratory (Bar Harbor, USA). The congenic SOD1 mice were maintained in our animal facility by crossing hemizygote SOD1 male mice with female C57BI/6J mice. Litters were genotyped according to established protocol using DNA extracted from ear tissue punches. Male SOD1 mice were used to maintain the colony, and SOD1 female and their wildtype littermates were used for experiments. All animals were assessed for human endpoints daily, weight twice a week, and neurological score once a week. SOD1 females (n=4) were evaluated at baseline and day 128 for cylinder, dark-light and y-maze tests, and at baseline and day 142 by neurological score, grip strength, hangwire test and rotarod. […] In addition, survival was evaluated as described under neurological score, onset of disease and survival analysis.
Mice were evaluated by the same experimenter weekly. […]

`CC(=O)N1CCC(c2nc(-c3ccncc3)cs2)N(C(=O)COc2ccccc2)CC1` (single isomer, unassigned) [Example 1, 1-(4-acetyl-7-(4-(pyridin-4-yl)thiazol-2-yl)-1,4-diazepan-1-yl)-2-phenoxyethan-1-one] gave an IC50 [1] of 0.3 µM.
For `CC(=O)N1CCC(c2nc(-c3ccncc3)cs2)N(C(=O)COc2ccccc2)CC1` (single isomer, unassigned) [Example 1-E1], the survival [2] was “improved survival”.
In the case of `CC(=O)N1CCC(c2nc(-c3ccncc3)cs2)N(C(=O)COc2ccccc2)CC1` (single isomer, unassigned) [Example 1-E2], the survival [2] is reported as “improved survival”.
